Reference: US10888547B2, “Amorphous and a crystalline form of genz 112638 hemitartrate as inhibitor of glucosylceramide synthase” (Genzyme Corporation, priority 2009, dated 2021)

How the values were obtained:
[1] = molecular target: T1, Non-lysosomal glucosylceramidase (GBA2) (Homo sapiens, UniProt Q9HCG7); assay: Non-lysosomal glucosylceramidase in intact human cells, C6-NBD-glucosylceramide substrate; format: cell-based; conditions: read-out: Enzyme specificities, IC50: Non-lysosomal glucosylceramidase (GBA2)
T1 construct: were assayed in intact human cells using C6-NBD-glucosylceramide as substrate; endogenous in cells
T1 sequence (Q9HCG7 1-927): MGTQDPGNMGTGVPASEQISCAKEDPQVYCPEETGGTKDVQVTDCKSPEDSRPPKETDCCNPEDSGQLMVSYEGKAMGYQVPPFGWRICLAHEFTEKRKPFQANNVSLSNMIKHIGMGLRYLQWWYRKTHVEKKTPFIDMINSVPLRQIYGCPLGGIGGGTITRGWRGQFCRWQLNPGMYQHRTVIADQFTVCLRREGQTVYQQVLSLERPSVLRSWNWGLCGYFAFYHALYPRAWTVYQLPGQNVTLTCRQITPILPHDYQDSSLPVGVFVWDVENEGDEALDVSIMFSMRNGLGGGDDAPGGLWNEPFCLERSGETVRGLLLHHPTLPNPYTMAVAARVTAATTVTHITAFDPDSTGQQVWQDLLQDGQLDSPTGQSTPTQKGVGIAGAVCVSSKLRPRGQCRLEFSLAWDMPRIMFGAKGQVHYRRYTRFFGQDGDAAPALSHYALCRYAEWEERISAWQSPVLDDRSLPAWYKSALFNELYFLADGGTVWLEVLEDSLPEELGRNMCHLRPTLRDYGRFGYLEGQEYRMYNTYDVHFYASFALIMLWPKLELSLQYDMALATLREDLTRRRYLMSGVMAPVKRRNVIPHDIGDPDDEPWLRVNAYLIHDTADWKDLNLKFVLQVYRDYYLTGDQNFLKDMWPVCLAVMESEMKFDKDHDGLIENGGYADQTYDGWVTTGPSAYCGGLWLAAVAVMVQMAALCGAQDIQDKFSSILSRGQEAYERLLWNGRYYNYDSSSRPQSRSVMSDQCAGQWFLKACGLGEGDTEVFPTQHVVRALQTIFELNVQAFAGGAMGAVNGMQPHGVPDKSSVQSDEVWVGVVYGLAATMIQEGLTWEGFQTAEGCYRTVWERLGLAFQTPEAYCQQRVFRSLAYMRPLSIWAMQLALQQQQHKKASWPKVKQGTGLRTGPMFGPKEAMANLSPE
Procedure: (§1) Non-lysosomal glucosylceramidase and lysosomal glucocerebrosidase were assayed in intact human cells using C6-NBD-glucosylceramide as substrate (see H. S. Overkleeft, et al. J. Biol. Chem. 273 (1998) 26522-26527, the entire teachings of which are incorporated herein by reference). Conduritol β epoxide (a specific inhibitor of lysosomal glucocerebrosidase) was used to differentiate lysosomal versus the non-lysosomal activity. Glucocerebrosidase activity was also measured by fluorescence-activated cell sorting (FACS). […] Cells were immediately chilled on ice and the fluorescence quantitated is above.

[2] = molecular target: T2, Lysosomal glucocerebrosidase (GBA1) (Homo sapiens, UniProt P04062); assay: Lysosomal glucocerebrosidase in intact human cells / FACS in K562 cells; format: cell-based
T2 construct: endogenous in cells; K562 cells for the FACS assay
T2 sequence (P04062 40-536): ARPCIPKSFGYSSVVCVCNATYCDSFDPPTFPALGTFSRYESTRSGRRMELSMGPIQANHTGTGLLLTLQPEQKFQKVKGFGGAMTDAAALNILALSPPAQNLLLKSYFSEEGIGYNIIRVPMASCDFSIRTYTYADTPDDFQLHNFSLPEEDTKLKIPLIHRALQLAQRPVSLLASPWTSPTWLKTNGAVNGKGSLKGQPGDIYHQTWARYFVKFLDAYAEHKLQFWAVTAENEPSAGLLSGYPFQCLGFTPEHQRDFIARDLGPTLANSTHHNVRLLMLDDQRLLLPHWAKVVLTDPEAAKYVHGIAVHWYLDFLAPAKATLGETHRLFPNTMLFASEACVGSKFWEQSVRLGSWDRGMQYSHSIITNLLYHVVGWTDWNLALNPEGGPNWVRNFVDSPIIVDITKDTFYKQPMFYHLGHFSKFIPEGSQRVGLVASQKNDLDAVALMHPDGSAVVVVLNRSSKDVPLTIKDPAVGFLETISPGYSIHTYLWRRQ
Procedure: as §1

Fabry mice = assay: Monotherapy of Fabry mice, drug in diet; format: in vivo, mouse; conditions: 300 mg/kg per day in diet, 11 months
Procedure: For the monotherapy studies, Fabry mice were put on study at 1 month old (prevention model). Treatment groups received Formula (I) Hemitartrate (Genzyme Corp., Cambridge, Mass.) as a component of the pellet food diet. The drug was formulated at 0.15% (w/w) in standard 5053 mouse chow (TestDiet, Richmond, Ind.) and provided ad libitum.
Quantitation of GL-3 was by Tandem Mass Spectrometry essentially as for GL-1.
Hot plate Assay was performed as described previously (Ziegler, R J et al. Molec. Ther. 15(3), 492-500 (2007).
SRT was evaluated in a mouse model of Fabry disease, which is caused by a deficiency of α-galactosidase A activity. Therapy with Formula (I) Hemitartrate started with one month-old Fabry mice and continued until the mice reached one year of age. […] Behavioral tests (i.e., hot-plate assay) and biochemical tests (i.e., urinalysis and GL-3 level analysis in tissues/blood/urine) of the mice were performed bimonthly.

[3] = system: Gaucher disease type 1 (GD1) patients; assay: Phase 2 clinical trial in adults with Gaucher disease type 1; format: in vivo, human; conditions: 50 or 100 mg bid orally
Procedure: Patients were to have splenomegaly (volume […]) and either thrombocytopenia (platelets 45,000-100,000/mm^3) or anemia (hemoglobin 8-10 g/dl, female; 8-11 g/dl, male). None received enzyme replacement or substrate reduction therapy in the prior 12 months. The composite primary efficacy endpoint is […] (+0.5 g/dl) or platelet count (+15%) after 52 weeks of treatment. Liver volume, chitotriosidase, glucosylceramide are also assessed. Patients continue to be treated and monitored long-term.

CCCCCCCC(=O)N[C@H](CN1CCCC1)[C@H](O)c1ccc2c(c1)OCCO2 [Formula (I) Hemitartrate]
IC50 [1]: 1600 µM
inhibition of glucocerebrosidase activity ([2]; at the effective dose): no measurable inhibition
IC50 ([2]; read-out: Enzyme specificities, IC50: Lysosomal glucocerebrosidase (GBA1)): > 2500 µM
inhibition of lysosomal glucocerebrosidase ([2]; up to the highest concentration of 2500 μM): no inhibition
presentation of insensitivity to an aversive heat stimulus (hot-plate assay) (Fabry mice): later presentation
urinalysis factors (urine volume, creatinine and sodium levels) (Fabry mice): prevention of deterioration
tolerability and safety profile [3]: well tolerated
composite primary endpoint met (hemoglobin +0.5 g/dl or platelet count +15%) ([3]; 52 weeks): 19 of the 20
mean (SD) change from baseline in chitotriosidase ([3]; Week 52): -49.9%
mean (SD) change from baseline in liver volume (multiples of normal) ([3]; Week 52): -15.8%
mean (SD) change from baseline in platelet count ([3]; Week 52): +43.6% (137.59%)
mean (SD) change from baseline in spleen volume (multiples of normal) ([3]; Week 52): -40.2%
related adverse events ([3]; all mild and transient): Seven related adverse events in 6 patients
time after which plasma glucosylceramide levels normalized ([3]; all patients): 4 weeks
